# In patent US5776903A, “Peptide derivatives usable as zinc endopeptidase 24-15 inhibitors” (Commissariat A l'Energie Atomique, priority 1995, dated 1998):
# Tests used:
# [1] = molecular target: endopeptidase 24-16 (Homo sapiens, UniProt Q9BYT8); assay: Inhibition of neurotensin degradation by purified endopeptidase 24-16 (HPLC), inhibition constant Ki; type: biochemical; details: neurotensin 20 μmole/l, 1 hour at 30° C., tris-HCl pH 7.5
# Description: This example studies the inhibiting effect of the peptides of the invention with respect to endopeptidase 24-16.
# To this end, incubation takes place for 1 hour at 30° C. of 2 nmole (20 μmole/l) of neurotensin, which is a known endopeptidase 24-16 substrate with 8 μg of endopeptidase 24-16 purified in a final volume of 100 μl of tris-HCl buffer, 50 mM, pH 7.5, in the absence of peptide (control) or in the presence of the peptide tested at concentrations from 10^-11 to 10^-7 mole/l. After 1 hour of incubation analysis takes place of the solutions by HPLC and the inhibition constant Ki of the tested peptide is determined.
# [2] = molecular target: endopeptidase 24-15 (Rattus norvegicus, UniProt P24155); assay: Inhibition of neurotensin degradation by purified endopeptidase 24-15 (HPLC), inhibition constant Ki; details: for SELECTIVITY (ratio Ki24-16 /Ki24-15): selectivity relative to endopeptidase 24-16
# Sequence of endopeptidase 24-15 (P24155 whole entry): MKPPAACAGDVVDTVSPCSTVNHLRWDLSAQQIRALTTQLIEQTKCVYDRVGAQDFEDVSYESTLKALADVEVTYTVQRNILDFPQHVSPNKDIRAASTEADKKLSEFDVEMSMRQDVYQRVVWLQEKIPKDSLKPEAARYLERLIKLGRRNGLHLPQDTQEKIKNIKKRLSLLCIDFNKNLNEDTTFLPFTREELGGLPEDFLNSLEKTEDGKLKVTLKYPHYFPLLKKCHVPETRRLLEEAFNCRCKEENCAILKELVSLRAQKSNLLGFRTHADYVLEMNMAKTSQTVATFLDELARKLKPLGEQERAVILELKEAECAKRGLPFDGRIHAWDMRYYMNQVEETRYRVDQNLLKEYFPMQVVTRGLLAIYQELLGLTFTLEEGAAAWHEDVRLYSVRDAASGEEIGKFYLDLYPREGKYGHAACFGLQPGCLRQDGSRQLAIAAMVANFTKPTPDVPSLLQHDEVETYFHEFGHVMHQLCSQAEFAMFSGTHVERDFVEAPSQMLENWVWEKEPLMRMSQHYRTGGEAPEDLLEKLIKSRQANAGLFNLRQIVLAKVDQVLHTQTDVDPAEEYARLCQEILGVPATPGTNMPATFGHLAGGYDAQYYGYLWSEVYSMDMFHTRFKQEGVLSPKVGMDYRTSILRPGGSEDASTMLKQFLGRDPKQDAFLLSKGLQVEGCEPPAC
# Description: Incubation takes place for 1 hour at 37° C. of 2 nmole (20 μmole/l) of neurotensin, which is a known endopeptidase 24-15 substrate, with 7 μg of purified endopeptidase 24-15 in a final volume of 100 μl of tris-HCl buffer, 50 nM, pH 7.5, in the absence of an inhibitor (control) or in the presence of the peptide tested at concentrations from 10^-11 to 10^-7 mole/l. After 1 hour incubation analysis takes place of the solutions by HPLC. On the basis of this analysis the inhibition constant Ki of the tested peptide is determined.
# Sequence of endopeptidase 24-16 (Q9BYT8 38-704): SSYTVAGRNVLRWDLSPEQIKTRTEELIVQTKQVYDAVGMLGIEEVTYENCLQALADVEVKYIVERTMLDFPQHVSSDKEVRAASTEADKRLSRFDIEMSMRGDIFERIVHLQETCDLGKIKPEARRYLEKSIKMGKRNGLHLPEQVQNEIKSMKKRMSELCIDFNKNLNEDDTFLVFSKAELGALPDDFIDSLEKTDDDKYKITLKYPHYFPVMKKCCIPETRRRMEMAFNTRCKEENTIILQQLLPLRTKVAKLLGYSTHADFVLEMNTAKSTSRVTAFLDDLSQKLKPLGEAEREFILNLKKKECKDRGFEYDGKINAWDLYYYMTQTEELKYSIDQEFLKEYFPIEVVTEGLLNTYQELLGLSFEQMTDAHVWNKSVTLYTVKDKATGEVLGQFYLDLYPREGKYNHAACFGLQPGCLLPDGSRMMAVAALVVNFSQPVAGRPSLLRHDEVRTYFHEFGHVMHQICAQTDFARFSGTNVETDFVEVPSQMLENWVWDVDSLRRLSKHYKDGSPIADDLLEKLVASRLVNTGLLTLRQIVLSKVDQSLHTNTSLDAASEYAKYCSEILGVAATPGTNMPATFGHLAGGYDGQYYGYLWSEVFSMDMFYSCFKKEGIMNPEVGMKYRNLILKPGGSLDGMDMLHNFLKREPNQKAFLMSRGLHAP
SMILES,Ki [1] [nM],Ki [2] [nM],SELECTIVITY (ratio Ki24-16 /Ki24-15) [2]
"CSCC[C@H](NC(=O)[C@H](CCCNC(=N)N)NC(=O)CCP(=O)(O)C(Cc1ccccc1)NC(=O)OCc1ccccc1)C(=O)O (mixture of isomers) [compound 1, Z--Phe .PSI. (PO2 CH2)Gly--Arg--Met]",132,0.35,377
"CCCC[C@H](NC(=O)[C@H](CCCNC(=N)N)NC(=O)CCP(=O)(O)C(Cc1ccccc1)NC(=O)OCc1ccccc1)C(=O)O (mixture of isomers) [compound 2, Z--Phe .PSI. (PO2 CH2)Gly--Arg--Nle]",213,1.6,135
"C[C@H](NC(=O)[C@H](CCCNC(=N)N)NC(=O)CCP(=O)(O)C(Cc1ccccc1)NC(=O)OCc1ccccc1)C(=O)O (mixture of isomers) [compound 3, Z--Phe .PSI. (PO2 CH2)Gly--Arg--Ala]",201,2.2,91
"N=C(N)NCCC[C@H](NC(=O)CCP(=O)(O)C(Cc1ccccc1)NC(=O)OCc1ccccc1)C(=O)N[C@@H](Cc1ccccc1)C(=O)O (mixture of isomers) [compound 4, Z--Phe .PSI. (PO2 CH2)Gly--Arg--Phe]",1100,2.7,409
"N=C(N)NCCC[C@H](NC(=O)CCP(=O)(O)C(Cc1ccccc1)NC(=O)OCc1ccccc1)C(=O)N[C@@H](Cc1ccc(O)cc1)C(=O)O (mixture of isomers) [compound 5, Z--Phe .PSI. (PO2 CH2)Gly--Arg--Tyr]",596,3.6,165
"CC(C)C[C@H](NC(=O)[C@H](CCCNC(=N)N)NC(=O)CCP(=O)(O)C(Cc1ccccc1)NC(=O)OCc1ccccc1)C(=O)O (mixture of isomers) [compound 6, Z--Phe .PSI. (PO2 CH2)Gly--Arg--Leu]",846,5,169
"N=C(N)NCCC[C@H](NC(=O)CCP(=O)(O)C(Cc1ccccc1)NC(=O)OCc1ccccc1)C(=O)N[C@@H](CCC(N)=O)C(=O)O (mixture of isomers) [compound 7, Z--Phe .PSI. (PO2 CH2)Gly--Arg--Gln]",690,6.1,113
"CC(C)[C@H](NC(=O)[C@H](CCCNC(=N)N)NC(=O)CCP(=O)(O)C(Cc1ccccc1)NC(=O)OCc1ccccc1)C(=O)O (mixture of isomers) [compound 8, Z--Phe .PSI. (PO2 CH2)Gly--Arg--Val]",1130,9.3,121
"CC[C@H](C)[C@H](NC(=O)[C@H](CCCNC(=N)N)NC(=O)CCP(=O)(O)C(Cc1ccccc1)NC(=O)OCc1ccccc1)C(=O)O (mixture of isomers) [compound 9, Z--Phe .PSI. (PO2 CH2)Gly--Arg--Ile]",589,9.6,61
"N=C(N)NCCC[C@H](NC(=O)CCP(=O)(O)C(Cc1ccccc1)NC(=O)OCc1ccccc1)C(=O)N[C@@H](Cc1c[nH]c2ccccc12)C(=O)O (mixture of isomers) [compound 10, Z--Phe .PSI. (PO2 CH2)Gly--Arg--Trp]",2660,13.1,203
"N=C(N)NCCC[C@H](NC(=O)CCP(=O)(O)C(Cc1ccccc1)NC(=O)OCc1ccccc1)C(=O)NCC(=O)O (mixture of isomers) [compound 11, Z--Phe .PSI. (PO2 CH2)Gly--Arg--Gly]",1660,13.8,120
"N=C(N)NCCC[C@H](NC(=O)[C@H](CCCNC(=N)N)NC(=O)CCP(=O)(O)C(Cc1ccccc1)NC(=O)OCc1ccccc1)C(=O)O (mixture of isomers) [compound 12, Z--Phe .PSI. (PO2 CH2)Gly--Arg--Arg]",2040,14,145
"N=C(N)NCCC[C@H](NC(=O)CCP(=O)(O)C(Cc1ccccc1)NC(=O)OCc1ccccc1)C(=O)N[C@@H](CC(N)=O)C(=O)O (mixture of isomers) [compound 13, Z--Phe .PSI. (PO2 CH2)Gly--Arg--Asn]",1380,19.5,71
"N=C(N)NCCC[C@H](NC(=O)CCP(=O)(O)C(Cc1ccccc1)NC(=O)OCc1ccccc1)C(=O)N[C@@H](Cc1c[nH]cn1)C(=O)O (mixture of isomers) [compound 14, Z--Phe .PSI. (PO2 CH2)Gly--Arg--His]",3010,23.2,129
"C[C@@H](O)[C@H](NC(=O)[C@H](CCCNC(=N)N)NC(=O)CCP(=O)(O)C(Cc1ccccc1)NC(=O)OCc1ccccc1)C(=O)O (mixture of isomers) [compound 17, Z--Phe .PSI. (PO2 CH2)Gly--Arg--Thr]",3640,35.2,103
"N=C(N)NCCC[C@H](NC(=O)CCP(=O)(O)C(Cc1ccccc1)NC(=O)OCc1ccccc1)C(=O)N[C@@H](CCCCN)C(=O)O (mixture of isomers) [compound 18, Z--Phe .PSI. (PO2 CH2)Gly--Arg--Lys]",25700,138,186
"N=C(N)NCCC[C@H](NC(=O)CCP(=O)(O)C(Cc1ccccc1)NC(=O)OCc1ccccc1)C(=O)N[C@@H](CCC(=O)O)C(=O)O (mixture of isomers) [compound 19, Z--Phe .PSI. (PO2 CH2)Gly--Arg--Glu]",8150,163,50

SMILES,Ki [1] [nM],Ki [2] [nM],SELECTIVITY (ratio Ki24-16 /Ki24-15) [2]
"N=C(N)NCCC[C@H](NC(=O)CCP(=O)(O)C(Cc1ccccc1)NC(=O)OCc1ccccc1)C(=O)N[C@@H](CC(=O)O)C(=O)O (mixture of isomers) [compound 20, Z--Phe .PSI. (PO2 CH2)Gly--Arg--Asp]",20400,352,58
"N=C(N)NCCC[C@H](NC(=O)CCP(=O)(O)C(Cc1ccccc1)NC(=O)OCc1ccccc1)C(=O)N1CCC[C@H]1C(=O)O (mixture of isomers) [compound 21, Z--Phe .PSI. (PO2 CH2)Gly--Arg--Pro]",36700,3520,10
"CSCC[C@H](NC(=O)[C@H](CCCCN)NC(=O)C(C)CP(=O)(O)C(Cc1ccccc1)NC(=O)OCc1ccccc1)C(=O)O (mixture of isomers) [compound 22, Z--Phe .PSI. (PO2 CH2)Ala--Lys--Met]",225,0.115,1957
"CC(CP(=O)(O)C(Cc1ccccc1)NC(=O)OCc1ccccc1)C(=O)N[C@@H](CCCCN)C(=O)N[C@@H](CCC(N)=O)C(=O)O (mixture of isomers) [compound 28, Z--Phe .PSI. (PO2 CH2)Ala--Lys--Gln]",–,2.18,–
"CC(CP(=O)(O)C(Cc1ccccc1)NC(=O)OCc1ccccc1)C(=O)N[C@@H](CCCCN)C(=O)N[C@@H](Cc1ccc(O)cc1)C(=O)O (mixture of isomers) [compound 29, Z--Phe .PSI. (PO2 CH2)Ala--Lys--Tyr]",–,2.3,–
"CC(CP(=O)(O)C(Cc1ccccc1)NC(=O)OCc1ccccc1)C(=O)N[C@@H](CCCCN)C(=O)N[C@H](C(=O)O)C(C)C (mixture of isomers) [compound 30, Z--Phe .PSI. (PO2 CH2)Ala--Lys--Val]",–,2.6,–
"CC(CP(=O)(O)C(Cc1ccccc1)NC(=O)OCc1ccccc1)C(=O)N[C@@H](CCCCN)C(=O)N[C@@H](CCCNC(=N)N)C(=O)O (mixture of isomers) [compound 31, Z--Phe .PSI. (PO2 CH2)Ala--Lys--Arg]",–,3.17,–
"CC(CP(=O)(O)C(Cc1ccccc1)NC(=O)OCc1ccccc1)C(=O)N[C@@H](CCCCN)C(=O)N[C@@H](CC(N)=O)C(=O)O (mixture of isomers) [compound 32, Z--Phe .PSI. (PO2 CH2)Ala--Lys--Asn]",–,4.9,–
"CC(CP(=O)(O)C(Cc1ccccc1)NC(=O)OCc1ccccc1)C(=O)N[C@@H](CCCCN)C(=O)NCC(=O)O (mixture of isomers) [compound 33, Z--Phe .PSI. (PO2 CH2)Ala--Lys--Gly]",–,5.1,–
"CC(CP(=O)(O)C(Cc1ccccc1)NC(=O)OCc1ccccc1)C(=O)N[C@@H](CCCCN)C(=O)N[C@@H](Cc1c[nH]c2ccccc12)C(=O)O (mixture of isomers) [compound 34, Z--Phe .PSI. (PO2 CH2)Ala--Lys--Trp]",–,5.78,–
"CC(CP(=O)(O)C(Cc1ccccc1)NC(=O)OCc1ccccc1)C(=O)N[C@@H](CCCCN)C(=O)N[C@@H](Cc1c[nH]cn1)C(=O)O (mixture of isomers) [compound 35, Z--Phe .PSI. (PO2 CH2)Ala--Lys--His]",–,7.13,–
"CC(CP(=O)(O)C(Cc1ccccc1)NC(=O)OCc1ccccc1)C(=O)N[C@@H](CCCCN)C(=O)N[C@H](C(=O)O)[C@@H](C)O (mixture of isomers) [compound 36, Z--Phe .PSI. (PO2 CH2)Ala--Lys--Thr]",–,10.1,–
"CC(CP(=O)(O)C(Cc1ccccc1)NC(=O)OCc1ccccc1)C(=O)N[C@@H](CCCCN)C(=O)N[C@@H](CO)C(=O)O (mixture of isomers) [compound 37, Z--Phe .PSI. (PO2 CH2)Ala--Lys--Ser]",–,11.9,–
"CC(CP(=O)(O)C(Cc1ccccc1)NC(=O)OCc1ccccc1)C(=O)N[C@@H](CCCCN)C(=O)N[C@@H](CCCCN)C(=O)O (mixture of isomers) [compound 38, Z--Phe .PSI. (PO2 CH2)ASla--Lys--Lys]",–,26.9,–
"CC(CP(=O)(O)C(Cc1ccccc1)NC(=O)OCc1ccccc1)C(=O)N[C@@H](CCCCN)C(=O)N[C@@H](CCC(=O)O)C(=O)O (mixture of isomers) [compound 39, Z--Phe .PSI. (PO2 CH2)Ala--Lys--Glu]",–,53.5,–
"CC(CP(=O)(O)C(Cc1ccccc1)NC(=O)OCc1ccccc1)C(=O)N[C@@H](CCCCN)C(=O)N[C@@H](CC(=O)O)C(=O)O (mixture of isomers) [compound 40, Z--Phe .PSI. (PO2 CH2)Ala--Lys--Asp]",–,109,–
"CC(CP(=O)(O)C(Cc1ccccc1)NC(=O)OCc1ccccc1)C(=O)N[C@@H](CCCCN)C(=O)N1CCC[C@H]1C(=O)O (mixture of isomers) [compound 41, Z--Phe .PSI. (PO2 CH2)Ala--Lys--Pro]",–,1030,–
